Test results: patent US10358434B2, “2-(3-pyridinyl)-1H-benzimidazole derivative compound and medicament containing same” (NIHON MEDI-PHYSICS CO., LTD., priority 2014, dated 2019)

Legend:
[1] = test system: human adrenal gland section expressing aldosterone-producing adenoma; test: In vitro autoradiography using human adrenal adenoma; assay type: binding
Outline: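 Frozen 7-μm sections of human adrenal bearing aldosterone-producing adenoma were immersed 10 min in radioligand (5-33 kBq/mL) in PBS with 1% fatty-acid-free BSA, washed, then exposed to imaging plates for 16-20 h. Equal-area ROI PSL in adenoma (B2) versus normal cortex (B1) gave B2/B1, corrected for nuclide half-life, added activity and exposure time.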

[2] = In vivo kinetics experiment (radioactivity distribution); parameters: species or system Wistar male rat
Outline: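 Male Wistar rats (9 weeks) under isoflurane received approximately 1 to 3.7 MBq radiotracer in saline with 1 w/v % ascorbic acid by tail-vein injection. At 10, 30 and 60 min, rats were exsanguinated; blood, organs and remaining body weighed and counted, giving % ID/g and adrenal-to-tissue ratios.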

[3] = Plasma stability evaluation (TLC analysis); assay type: in vitro ADME; conditions: 37° C., 60 minutes, TLC analysis
Outline: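 Radiolabelled compounds were incubated in heparin-treated pooled normal human plasma at 37° C for 60 minutes. After methanol deproteinization and centrifugation, stability was assessed by TLC under the conditions used for each compound's synthesis.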

[4] = 10 min after administration, rat i.v., mean ± SD
[5] = 30 min after administration, rat i.v., mean ± SD
[6] = 60 min after administration, rat i.v., mean ± SD
[7] = rat, caudal vein, 10 min after administration
[8] = rat, caudal vein, 30 min after administration
[9] = rat, caudal vein, 60 min after administration

FCCn1c(-c2cncc(Cn3cncc3[123I])c2)nc2cc(F)c(Cl)cc21 [[^123I] 610, 6-Chloro-5-fluoro-1-(2-fluoroethyl)-2-{5-(5-[^123I]iodo-1H-imidazol-1-ylmethyl)pyridin-3-yl}benzimidazole]
B2/B1 accumulation ratio ([1]; section of FIG. 17(b)): 0.95 | B2 (PSL value, aldosterone-producing adenoma) ([1]; section of FIG. 17(b), site 71b): 2786 | B1 (PSL value, normal adrenal cortex) ([1]; section of FIG. 17(b), site 72b): 2931 | Adrenal gland/blood ratio of radioactivity accumulation [2, 4]: 27.61 ± 6.22 | Adrenal gland/fat ratio of radioactivity accumulation [2, 4]: 100.35 ± 29.67 | Adrenal gland/kidney ratio of radioactivity accumulation [2, 4]: 14.48 ± 2.49 | Adrenal gland/liver ratio of radioactivity accumulation [2, 4]: 3.68 ± 0.80 | Adrenal gland/muscle ratio of radioactivity accumulation [2, 4]: 62.69 ± 29.38 | Adrenal gland/small intestine ratio of radioactivity accumulation [2, 4]: 18.10 ± 4.67 | Radioactivity distribution Adrenal gland [2, 4]: 12.62 ± 2.99 % ID/g | Radioactivity distribution Bladder (including urine) [2, 4]: 0.22 ± 0.08 % ID/g | Radioactivity distribution Blood [2, 4]: 0.46 ± 0.03 % ID/g | Radioactivity distribution Fat [2, 4]: 0.13 ± 0.02 % ID/g | Radioactivity distribution Femur [2, 4]: 3.25 ± 0.85 % ID/g | Radioactivity distribution Heart [2, 4]: 0.33 ± 0.02 % ID/g | Radioactivity distribution Kidney [2, 4]: 0.86 ± 0.06 % ID/g | Radioactivity distribution Large intestine [2, 4]: 0.13 ± 0.02 % ID/g | Radioactivity distribution Liver [2, 4]: 3.43 ± 0.26 % ID/g | Radioactivity distribution Lung [2, 4]: 0.49 ± 0.03 % ID/g | Radioactivity distribution Muscle (lower limbs) [2, 4]: 0.21 ± 0.05 % ID/g | Radioactivity distribution Remaining whole body [2, 4]: 0.30 ± 0.04 % ID/g | Radioactivity distribution Small intestine [2, 4]: 0.71 ± 0.10 % ID/g | Radioactivity distribution Spleen [2, 4]: 1.43 ± 0.11 % ID/g | Radioactivity distribution Stomach [2, 4]: 0.66 ± 0.21 % ID/g | Radioactivity distribution Testis [2, 4]: 0.13 ± 0.02 % ID/g | Radioactivity distribution Whole brain [2, 4]: 0.04 ± 0.00 % ID/g | Adrenal gland/blood ratio of radioactivity accumulation [2, 5]: 23.78 ± 2.07 | Adrenal gland/fat ratio of radioactivity accumulation [2, 5]: 88.69 ± 3.10 | Adrenal gland/kidney ratio of radioactivity accumulation [2, 5]: 28.65 ± 3.77 | Adrenal gland/liver ratio of radioactivity accumulation [2, 5]: 6.43 ± 0.94 | Adrenal gland/muscle ratio of radioactivity accumulation [2, 5]: 94.79 ± 8.71 | Adrenal gland/small intestine ratio of radioactivity accumulation [2, 5]: 16.12 ± 2.61 | Radioactivity distribution Adrenal gland [2, 5]: 15.71 ± 1.59 % ID/g | Radioactivity distribution Bladder (including urine) [2, 5]: 0.28 ± 0.08 % ID/g | Radioactivity distribution Blood [2, 5]: 0.66 ± 0.04 % ID/g | Radioactivity distribution Fat [2, 5]: 0.18 ± 0.01 % ID/g | Radioactivity distribution Femur [2, 5]: 19.34 ± 6.00 % ID/g | Radioactivity distribution Heart [2, 5]: 0.31 ± 0.02 % ID/g | Radioactivity distribution Kidney [2, 5]: 0.55 ± 0.02 % ID/g | Radioactivity distribution Large intestine [2, 5]: 0.16 ± 0.03 % ID/g | Radioactivity distribution Liver [2, 5]: 2.46 ± 0.18 % ID/g | Radioactivity distribution Lung [2, 5]: 0.53 ± 0.02 % ID/g | Radioactivity distribution Muscle (lower limbs) [2, 5]: 0.17 ± 0.02 % ID/g | Radioactivity distribution Remaining whole body [2, 5]: 0.31 ± 0.02 % ID/g | Radioactivity distribution Small intestine [2, 5]: 0.98 ± 0.06 % ID/g | Radioactivity distribution Spleen [2, 5]: 1.00 ± 0.04 % ID/g | Radioactivity distribution Stomach [2, 5]: 1.27 ± 0.33 % ID/g | Radioactivity distribution Testis [2, 5]: 0.25 ± 0.02 % ID/g | Radioactivity distribution Whole brain [2, 5]: 0.04 ± 0.00 % ID/g | Adrenal gland/blood ratio of radioactivity accumulation [2, 6]: 27.80 ± 8.18 | Adrenal gland/fat ratio of radioactivity accumulation [2, 6]: 120.42 ± 43.06 | Adrenal gland/kidney ratio of radioactivity accumulation [2, 6]: 40.68 ± 13.23 | Adrenal gland/liver ratio of radioactivity accumulation [2, 6]: 20.57 ± 8.91 | Adrenal gland/muscle ratio of radioactivity accumulation [2, 6]: 147.93 ± 55.03 | Adrenal gland/small intestine ratio of radioactivity accumulation [2, 6]: 15.84 ± 3.51 | Radioactivity distribution Adrenal gland [2, 6]: 19.09 ± 6.65 % ID/g | Radioactivity distribution Bladder (including urine) [2, 6]: 0.29 ± 0.08 % ID/g | Radioactivity distribution Blood [2, 6]: 0.68 ± 0.05 % ID/g | Radioactivity distribution Fat [2, 6]: 0.16 ± 0.03 % ID/g | Radioactivity distribution Femur [2, 6]: 44.38 ± 12.58 % ID/g | Radioactivity distribution Heart [2, 6]: 0.28 ± 0.04 % ID/g | Radioactivity distribution Kidney [2, 6]: 0.47 ± 0.02 % ID/g | Radioactivity distribution Large intestine [2, 6]: 0.19 ± 0.02 % ID/g | Radioactivity distribution Liver [2, 6]: 0.95 ± 0.10 % ID/g | Radioactivity distribution Lung [2, 6]: 0.50 ± 0.03 % ID/g | Radioactivity distribution Muscle (lower limbs) [2, 6]: 0.13 ± 0.01 % ID/g | Radioactivity distribution Remaining whole body [2, 6]: 0.31 ± 0.02 % ID/g | Radioactivity distribution Small intestine [2, 6]: 1.18 ± 0.18 % ID/g | Radioactivity distribution Spleen [2, 6]: 0.78 ± 0.25 % ID/g | Radioactivity distribution Stomach [2, 6]: 2.97 ± 0.54 % ID/g | Radioactivity distribution Testis [2, 6]: 0.32 ± 0.05 % ID/g | Radioactivity distribution Whole brain [2, 6]: 0.03 ± 0.00 % ID/g | Radiochemical purity after incubation in human plasma [3]: 92%

Methyl 1-[4-(1-cyclopropyl-6-[^123I]iodo-1H-imidazobenzo-2-yl)-3-pyridinylmethyl)]-1H-imidazolecarboxylate [[^123I] 601]
B2/B1 accumulation ratio ([1]; section of FIG. 17(a)): 1.05 | B2 (PSL value, aldosterone-producing adenoma) ([1]; section of FIG. 17(a), site 71a): 3201 | B1 (PSL value, normal adrenal cortex) ([1]; section of FIG. 17(a), site 72a): 3040 | Adrenal gland/blood ratio of radioactivity accumulation [2, 7]: 49.76 ± 8.04 | Adrenal gland/fat ratio of radioactivity accumulation [2, 7]: 48.18 ± 26.02 | Adrenal gland/kidney ratio of radioactivity accumulation [2, 7]: 11.53 ± 2.04 | Adrenal gland/liver ratio of radioactivity accumulation [2, 7]: 3.21 ± 0.44 | Adrenal gland/muscle ratio of radioactivity accumulation [2, 7]: 51.74 ± 11.28 | Adrenal gland/small intestine ratio of radioactivity accumulation [2, 7]: 6.93 ± 2.04 | Radioactivity distribution Adrenal gland [2, 7]: 13.40 ± 2.41 % ID/g | Radioactivity distribution Bladder (including urine) [2, 7]: 0.65 ± 0.26 % ID/g | Radioactivity distribution Blood [2, 7]: 0.27 ± 0.01 % ID/g | Radioactivity distribution Fat [2, 7]: 0.34 ± 0.16 % ID/g | Radioactivity distribution Heart [2, 7]: 0.61 ± 0.03 % ID/g | Radioactivity distribution Kidney [2, 7]: 1.16 ± 0.02 % ID/g | Radioactivity distribution Large intestine [2, 7]: 0.14 ± 0.01 % ID/g | Radioactivity distribution Liver [2, 7]: 4.15 ± 0.27 % ID/g | Radioactivity distribution Lung [2, 7]: 0.54 ± 0.01 % ID/g | Radioactivity distribution Muscle (lower limbs) [2, 7]: 0.26 ± 0.02 % ID/g | Radioactivity distribution Remaining whole body [2, 7]: 0.30 ± 0.01 % ID/g | Radioactivity distribution Small intestine [2, 7]: 1.99 ± 0.27 % ID/g | Radioactivity distribution Spleen [2, 7]: 0.51 ± 0.02 % ID/g | Radioactivity distribution Stomach [2, 7]: 0.83 ± 0.25 % ID/g | Radioactivity distribution Testis [2, 7]: 0.32 ± 0.01 % ID/g | Radioactivity distribution Thyroid gland [2, 7]: 0.62 ± 0.09 % ID/g | Radioactivity distribution Whole brain [2, 7]: 0.15 ± 0.01 % ID/g | Adrenal gland/blood ratio of radioactivity accumulation [2, 8]: 88.31 ± 19.36 | Adrenal gland/fat ratio of radioactivity accumulation [2, 8]: 34.33 ± 3.72 | Adrenal gland/kidney ratio of radioactivity accumulation [2, 8]: 28.94 ± 22.29 | Adrenal gland/liver ratio of radioactivity accumulation [2, 8]: 6.49 ± 1.59 | Adrenal gland/muscle ratio of radioactivity accumulation [2, 8]: 72.90 ± 18.29 | Adrenal gland/small intestine ratio of radioactivity accumulation [2, 8]: 3.30 ± 0.96 | Radioactivity distribution Adrenal gland [2, 8]: 17.21 ± 1.46 % ID/g | Radioactivity distribution Bladder (including urine) [2, 8]: 0.41 ± 0.03 % ID/g | Radioactivity distribution Blood [2, 8]: 0.20 ± 0.03 % ID/g | Radioactivity distribution Fat [2, 8]: 0.50 ± 0.03 % ID/g | Radioactivity distribution Heart [2, 8]: 0.42 ± 0.08 % ID/g | Radioactivity distribution Kidney [2, 8]: 0.80 ± 0.39 % ID/g | Radioactivity distribution Large intestine [2, 8]: 0.15 ± 0.01 % ID/g | Radioactivity distribution Liver [2, 8]: 2.71 ± 0.39 % ID/g | Radioactivity distribution Lung [2, 8]: 0.43 ± 0.07 % ID/g | Radioactivity distribution Muscle (lower limbs) [2, 8]: 0.24 ± 0.04 % ID/g | Radioactivity distribution Remaining whole body [2, 8]: 0.24 ± 0.03 % ID/g | Radioactivity distribution Small intestine [2, 8]: 5.54 ± 1.72 % ID/g | Radioactivity distribution Spleen [2, 8]: 0.35 ± 0.07 % ID/g | Radioactivity distribution Stomach [2, 8]: 0.86 ± 0.23 % ID/g | Radioactivity distribution Testis [2, 8]: 0.31 ± 0.05 % ID/g | Radioactivity distribution Thyroid gland [2, 8]: 0.69 ± 0.26 % ID/g | Radioactivity distribution Whole brain [2, 8]: 0.11 ± 0.02 % ID/g | Adrenal gland/blood ratio of radioactivity accumulation [2, 9]: 73.52 ± 21.70 | Adrenal gland/fat ratio of radioactivity accumulation [2, 9]: 18.31 ± 9.45 | Adrenal gland/kidney ratio of radioactivity accumulation [2, 9]: 10.42 ± 4.49 | Adrenal gland/liver ratio of radioactivity accumulation [2, 9]: 4.79 ± 1.48 | Adrenal gland/muscle ratio of radioactivity accumulation [2, 9]: 63.30 ± 21.65 | Adrenal gland/small intestine ratio of radioactivity accumulation [2, 9]: 0.99 ± 0.55 | Radioactivity distribution Adrenal gland [2, 9]: 8.87 ± 3.98 % ID/g | Radioactivity distribution Bladder (including urine) [2, 9]: 1.17 ± 0.51 % ID/g | Radioactivity distribution Blood [2, 9]: 0.12 ± 0.02 % ID/g | Radioactivity distribution Fat [2, 9]: 0.50 ± 0.09 % ID/g | Radioactivity distribution Heart [2, 9]: 0.26 ± 0.05 % ID/g | Radioactivity distribution Kidney [2, 9]: 0.84 ± 0.09 % ID/g | Radioactivity distribution Large intestine [2, 9]: 0.14 ± 0.02 % ID/g | Radioactivity distribution Liver [2, 9]: 1.80 ± 0.26 % ID/g | Radioactivity distribution Lung [2, 9]: 0.26 ± 0.03 % ID/g | Radioactivity distribution Muscle (lower limbs) [2, 9]: 0.14 ± 0.02 % ID/g | Radioactivity distribution Remaining whole body [2, 9]: 0.15 ± 0.01 % ID/g | Radioactivity distribution Small intestine [2, 9]: 9.33 ± 1.02 % ID/g | Radioactivity distribution Spleen [2, 9]: 0.20 ± 0.03 % ID/g | Radioactivity distribution Stomach [2, 9]: 0.50 ± 0.29 % ID/g | Radioactivity distribution Testis [2, 9]: 0.22 ± 0.05 % ID/g | Radioactivity distribution Thyroid gland [2, 9]: 0.93 ± 0.47 % ID/g | Radioactivity distribution Whole brain [2, 9]: 0.10 ± 0.04 % ID/g | Radiochemical purity after incubation in human plasma [3]: 98%
